Reference: patent publication US7163800B2, “Methods of screening compositions for G protein-coupled receptor desensitization inhibitory activity” (Molecular Devices Corporation, priority 2000, dated 2007)
Like-named read-outs stand apart in the source and are kept apart here.

Key:
[1] = target: HA-tagged human β2-adrenergic receptor (β2AR) (Homo sapiens, UniProt P07550); assay: arrestin-GFP localization (Fgrains) assay in U20S-β2AR/ArrGFP cells, isoproterenol stimulated
Method: Each of the fifteen compounds was separately screened for GPCR desensitization inhibitory activity against HA-tagged human β2-adrenergic receptor (β2AR) and against human vasopressin V2 receptor (V2R). In addition, the effects of temperature and carbon dioxide (CO2) were evaluated with respect to each compound.

[2] = target: human vasopressin V2 receptor (V2R) (Homo sapiens, UniProt P30518); assay: arrestin-GFP localization (Fgrains) assay in U20S-V2R/ArrGFP cells, arginine vasopressin stimulated; assay type: cell-based; settings: 100 nM arginine vasopressin
human vasopressin V2 receptor (V2R), sequence (P30518 whole entry): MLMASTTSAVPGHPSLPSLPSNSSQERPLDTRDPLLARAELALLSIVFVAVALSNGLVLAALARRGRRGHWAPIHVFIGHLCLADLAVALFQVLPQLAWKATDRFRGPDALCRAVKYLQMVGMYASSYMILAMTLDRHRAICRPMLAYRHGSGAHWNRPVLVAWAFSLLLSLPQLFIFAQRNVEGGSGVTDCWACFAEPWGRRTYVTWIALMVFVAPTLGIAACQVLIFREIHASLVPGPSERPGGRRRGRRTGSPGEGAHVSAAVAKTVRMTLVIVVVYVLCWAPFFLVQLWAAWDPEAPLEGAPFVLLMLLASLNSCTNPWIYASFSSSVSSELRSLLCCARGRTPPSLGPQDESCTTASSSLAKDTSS
Method: The assay was carried out using two different “double stable” human osteosarcoma cell (U20S) lines. […] The other cell line (U20S-V2R/ArrGFP) stably expressed V2R and the same arrestin-GFP conjugate.
The two cell lines (U20S-β2AR/ArrGFP and U20S-V2R/ArrGFP) were separately plated at 7000 cells/well on 384 well glass bottom plates. Two plates of U20S-β2AR/ArrGFP cells were prepared and two plates of U20S-V2R/ArrGFP cells were prepared.
Growth media was replaced with serum free media (i.e., Eagle's minimum essential medium (EMEM) buffered with 10 mM HEPES (N-2-Hydroxyethylpiperazine-N′-2-ethanesulfonic acid)) 24 hours after plating of the cells.
Each test compound was solvated using 100% dimethyl sulfoxide (DMSO). Multiple solutions of each compound were prepared at varying concentrations for testing in separate wells of each plate. If needed, the solutions were sonicated and heated to increase solubility. After preparation of the compound solutions, they were shielded from light.
Each of the solutions of varying concentrations of the fifteen compounds was added to a well on each of the four plates. The β2AR RT and V2R RT plates were incubated for 30 minutes at room temperature and atmospheric CO2.
Agonist was then added to each well. […] The β2AR RT and V2R RT plates were incubated for 30 minutes at room temperature and atmospheric CO2.
Each assay was then terminated using 1% paraformaldehyde containing 1 μM DRAQ5 DNA probe to fix the cells. The cells were analyzed using a pre-production model (alpha unit) of the IN Cell Analyzer 3000 (Amersham Biosciences), which is a line scanning, confocal imaging system. The IN Cell Analyzer 3000 was used to quantitate the localization of the arrestin-GFP conjugate for the cells in each well using the Amersham Biosciences granularity analysis GRNO algorithm. This algorithm finds the nucleus of cells and then dilates out a specified distance in which fluorescent spots or “grains” of arrestin-GFP localization are identified based on size and fluorescent intensity. The average of the fluorescent intensity of the identified grains per cell in an acquired image (i.e., Fgrains) was determined for each well on the plates.
The graphs for each compound as well as for the propanolol control are illustrated in FIGS. 7–22.
The curve-fitting program allowed the minimum and maximum values as well as the slope and EC50 values to vary rather than fixing the values to specified or collected values.

[3] = test system: β2AR and V2R; settings: inhibitory activity shown for both β2AR and V2R
Text: Each of the fifteen compounds was separately screened for GPCR desensitization inhibitory activity against HA-tagged human β2-adrenergic receptor (β2AR) and against human vasopressin V2 receptor (V2R).
As indicated by the Fgrains values for the cells in the Basal and Stimulated control wells, the Fgrains value determined by the IN Cell Analyzer 3000 in this example was functionally a measure of the average extent of desensitization in the cells in each well.

[4] = B2AR CO2 plate: 37° C., 5% CO2/95% O2, 100 nM isoproterenol
[5] = V2R CO2 plate: 37° C., 5% CO2/95% O2
[6] = V2R RT plate: room temperature, atmospheric CO2
[7] = B2AR RT plate: room temperature, atmospheric CO2, 100 nM isoproterenol

HA-tagged human β2-adrenergic receptor (β2AR), sequence (P07550 whole entry): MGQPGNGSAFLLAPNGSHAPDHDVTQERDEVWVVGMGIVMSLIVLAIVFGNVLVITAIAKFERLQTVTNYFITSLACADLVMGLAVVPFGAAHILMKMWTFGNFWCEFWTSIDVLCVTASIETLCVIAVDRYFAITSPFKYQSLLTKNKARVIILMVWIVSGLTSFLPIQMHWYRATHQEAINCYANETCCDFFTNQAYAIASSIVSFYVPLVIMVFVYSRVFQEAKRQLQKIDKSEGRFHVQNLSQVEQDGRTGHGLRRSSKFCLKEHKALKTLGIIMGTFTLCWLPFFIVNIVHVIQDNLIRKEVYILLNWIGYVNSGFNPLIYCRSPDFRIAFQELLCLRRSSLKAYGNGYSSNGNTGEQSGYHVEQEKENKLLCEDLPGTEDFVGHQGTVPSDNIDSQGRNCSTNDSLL

Max Rsp (change between fitted maximum and fitted minimum Fgrains) [1, 4]	Min (fitted minimum Fgrains) [1, 4]	slope of concentration-response curve [1, 4]	pEC50 [2, 5]	EC50 [2, 6] [µM]	Max Rsp (change between fitted maximum and fitted minimum Fgrains) [2, 6]	Min (fitted minimum Fgrains) [2, 6]	pEC50 [2, 6]	slope of concentration-response curve [2, 6]	pEC50 [1, 4]	Max Rsp (change between fitted maximum and fitted minimum Fgrains) [1, 7]	Min (fitted minimum Fgrains) [1, 7]	pEC50 [1, 7]	slope of concentration-response curve [1, 7]	EC50 [1, 4] [µM]	Structure (SMILES)	Max Rsp (change between fitted maximum and fitted minimum Fgrains) [2, 5]	Min (fitted minimum Fgrains) [2, 5]	slope of concentration-response curve [2, 5]	indication of non-receptor-specific GPCR desensitization inhibitory activity [3]	EC50 [2, 5] [µM]	further results
129	307	3.2	–	–	–	–	–	–	–	–	–	–	–	–	CCC(=O)n1nc2c(c1C(C)(C)C)C(=O)c1ccccc1-2 [3-tert-Butyl-2-propionyl-2H-indeno[1,2-c]pyrazol-4-one]	–	–	–	–	–	EC50 [1]: 46.9 µM
998	−568	1.1	4.6	51.2	690	−118	4.3	1.2	3.6	171	237	4.5	3.5	–	Cl.NCCCn1cc(C2=C(c3c[nH]c4ccccc34)C(=O)NC2=O)c2ccccc21 [Bisindolylmaleimide III, Hydrochloride]	455	129	1.4	non-receptor-specific GPCR desensitization inhibitory activity	–	EC50 ([2]; V2R CO2 plate: 37° C., 5% CO2/95% O2, Hydrochloride): 27.2 µM; EC50 ([1]; B2AR CO2 plate: 37° C., 5% CO2/95% O2, 100 nM isoproterenol, Hydrochloride): 233 µM; EC50 ([1]; B2AR RT plate: room temperature, atmospheric CO2, 100 nM isoproterenol, Hydrochloride): 34.9 µM
194	243	1.8	5.2	19.3	361	225	4.7	0.9	5.0	232	212	4.7	1.2	11.1	NCCCn1cc(C2=C(c3c[nH]c4ccccc34)C(=O)NC2=O)c2ccccc21 [Bisindolylmaleimide III]	298	291	1.9	non-receptor-specific GPCR desensitization inhibitory activity	6	EC50 [1, 7]: 22.4 µM
502	−70	1.7	4.5	35	576	−7	4.5	1.1	4.2	924	−508	4.1	1.7	62.1	CN1CCCC1CCn1cc(C2=C(c3c[nH]c4ccccc34)C(=O)NC2=O)c2ccccc21 (stereo not drawn) [Bisindolylmaleimide II]	420	159	1.2	non-receptor-specific GPCR desensitization inhibitory activity	29.2	EC50 [1, 7]: 87.3 µM
278	167	2.3	5.0	36.6	717	−130	4.4	1.1	4.7	281	148	4.6	2.2	21.2	O=C1NC(=O)C(c2cn(CCCN3CCNCC3)c3ccccc23)=C1c1c[nH]c2ccccc12 [Bisindolylmaleimide VII]	336	250	2.4	non-receptor-specific GPCR desensitization inhibitory activity	9.3	EC50 [1, 7]: 24.9 µM

More lines, now with the values behind:

Structure (SMILES)	Max Rsp (change between fitted maximum and fitted minimum Fgrains) [1, 4]	Min (fitted minimum Fgrains) [1, 4]	slope of concentration-response curve [1, 4]	pEC50 [2, 5]	EC50 [2, 6] [µM]	Max Rsp (change between fitted maximum and fitted minimum Fgrains) [2, 6]	Min (fitted minimum Fgrains) [2, 6]	pEC50 [2, 6]	slope of concentration-response curve [2, 6]	pEC50 [1, 4]	Max Rsp (change between fitted maximum and fitted minimum Fgrains) [1, 7]	Min (fitted minimum Fgrains) [1, 7]	pEC50 [1, 7]	slope of concentration-response curve [1, 7]	EC50 [1, 4] [µM]	Max Rsp (change between fitted maximum and fitted minimum Fgrains) [2, 5]	Min (fitted minimum Fgrains) [2, 5]	slope of concentration-response curve [2, 5]	indication of non-receptor-specific GPCR desensitization inhibitory activity [3]	EC50 [2, 5] [µM]	further results
O=C1NC(=O)C(c2c[nH]c3ccccc23)=C1c1c[nH]c2ccccc12 [Bisindolylmaleimide IV]	–	–	–	4.2	–	–	–	–	–	–	–	–	–	–	–	277	292	6.5	–	69.2	–
Cn1cc(C2=C(c3cn(CCCN)c4ccccc34)C(=O)NC2=O)c2ccccc21 [RO-31-7549]	243	193	1.2	5.6	3.3	320	250	5.5	1.5	5.0	423	4	4.5	0.8	9.4	357	240	1.0	non-receptor-specific GPCR desensitization inhibitory activity	2.7	EC50 [1, 7]: 31.1 µM
Cn1cc(C2=C(c3c4n(c5ccccc35)CCC(CN)C4)C(=O)NC2=O)c2ccccc21 (stereo not drawn) [RO-31-8425]	203	233	2.1	4.9	6.9	342	241	5.2	1.5	5.1	359	60	4.6	1.3	8.8	532	60	1.0	non-receptor-specific GPCR desensitization inhibitory activity	13.9	EC50 [1, 7]: 23.2 µM
C[n+]1cc2c3c(ccc2c2ccc4cc5c(cc4c21)OCO5)OCO3 [Sanguinarine Chloride (LOPAC), Sanguinarine Chloride]	350	85	1.6	–	–	508	45	–	2.3	–	330	76	–	1.8	–	519	63	2.6	non-receptor-specific GPCR desensitization inhibitory activity	–	EC50 ([1]; EC50, B2AR CO2 plate: 37° C., 5% CO2/95% O2, 100 nM isoproterenol): 3.3 µM; EC50 ([1]; EC50, B2AR RT plate: room temperature, atmospheric CO2, 100 nM isoproterenol): 2.8 µM
